Assay: Liposome encapsulation test, remote loading method (Experimental Example 4);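 on Encapsulation efficiency: encapsulated compound as percent of compound amount introduced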
Assay type: physicochemical
Method: For Example 1, Example 2, Example 3, Example 4, Example 5, Example 6, Example 7, Example 8, Example 9, Example 10, Example 11, Example 12, Example 13, Example 14, Example 15, Example 16, Example 17 and Alvocidib, an encapsulation test in liposomes was performed using a remote loading method.
<Liposome Encapsulation Test of Example 1, Example 2, Example 5, Example 6, Example 9, Example 10, Example 11, Example 12, Example 13, Example 14, Example 15, and Example 16>
Hydrogenated soybean phosphatidylcholine (COATSOME NC-21E, manufactured by NOF CORPORATION, 7.77 g), cholesterol (manufactured by Sigma, 2.78 g) and distearoylphosphatidylethanolamine-methoxypolyethylene glycol 2000 (SUNBRIGHT DSPE-020CN, manufactured by NOF CORPORATION, 2.47 g) were dissolved in tert-butyl alcohol (720 mL) warmed to 65° C. The solution was placed in an eggplant flask and frozen in a dry ice-acetone bath, and then the tert-butyl alcohol was removed by evaporation under reduced pressure to give a lipid mixture.
To the above lipid mixture was added a 250 mM ammonium sulfate solution (240 mL), and the mixture was warmed to 65° C., and dispersed by a homogenizer (ULTRA-TURRAX, manufactured by IKA) to give a crude liposome dispersion. Then, the crude liposome dispersion was dispersed by a high pressure homogenizer (Nano-Mizer NM2, manufactured by YOSHIDA KIKAI CO., LTD.) at a pressure of 100 MPa to give liposomes with an average particle size (Z-average) of about 80 nm. The liposome outer solution was replaced with 10 mM L-histidine/10% sucrose solution (pH 6.5) using a dialysis cassette (Slide-A-Lyzer G2 Dialysis Cassettes 20K MWCO, manufactured by Thermo Scientific) to give an empty liposome solution. The solution was filtered through a 0.22 μm membrane filter, and a 10 mM L-histidine/10% sucrose solution (pH 6.5) was added thereto to adjust the total lipid concentration to 50 mM (50 μmol/mL). The lipid concentration was determined by quantitatively analyzing cholesterol using HPLC and calculating the total lipid concentration from the lipid mixing ratio. The amount for the above adjustment was increased or decreased as appropriate.
The compound (10 mg) was weighed, and the empty liposome solution (1 mL) with a total lipid concentration of 50 mM was added thereto. The solution was adjusted to pH 5 to 6 with 1 mol/L hydrochloric acid or 1 mol/L aqueous sodium hydroxide solution as necessary, warmed in a 65° C. water bath for 2 to 3 minutes, and ice-cooled. The mixture was centrifuged at 15,000×g for 5 minutes to precipitate and remove insoluble substances.
The liposome solution (100 μL) after removing insoluble substances was taken on an ultrafiltration filter (Amicon Ultra, 100K, 0.5 mL, manufactured by Merck) and centrifuged at 4° C., 15,000×g for 10 minutes. The compound concentrations in the liposome solution after removing insoluble substances and in the filtrate after ultrafiltration were determined by HPLC, and the encapsulation rate, encapsulation efficiency, and encapsulated compound content per 50 μmol of lipid were calculated by the following formula.
The measurement conditions for HPLC are as follows.
An empty liposome solution with a total lipid concentration of 75 mM was prepared by the same procedure as for the above example compound group. Each compound was weighed, and the empty liposome solution with a total lipid concentration of 75 mM was added thereto such that the compound concentration became 15 mg/mL. The solution was adjusted to pH 5 to 6 with 1 mol/L hydrochloric acid or 1 mol/L aqueous sodium hydroxide solution, warmed in a 65° C. water bath for 3 minutes, and ice-cooled. Hereafter, the encapsulation rate and encapsulation efficiency were calculated by the same procedure as for the above example compound group. The encapsulated compound content per 50 μmol of lipid was calculated by the following formula.
[formula] <Liposome Encapsulation Test of Example 7, Example 8 and Example 17> […]

[1] = Compound concentration when encapsulated 10 mg/mL
[2] = Compound concentration when encapsulated 15 mg/mL

| SMILES | Encapsulated compound content per 50 μmol of lipid [1] [mg] | Encapsulation efficiency [1] [%] | Encapsulation rate [1] [%] | Encapsulated compound content per 50 μmol of lipid [2] [mg] | Encapsulation efficiency [2] [%] | Encapsulation rate [2] [%] | encapsulation rate, encapsulation efficiency and encapsulated compound content per 50 μmol of lipid (remote loading into liposomes) |
| --- | --- | --- | --- | --- | --- | --- | --- |
| CCN(CCC1CCCCN1)C(=O)Oc1cc(O)c2c(=O)cc(-c3ccccc3Cl)oc2c1[C@H]1CCN(C)C[C@H]1O (stereo partly drawn) [Example 16, 2-(2-chlorophenyl)-5-hydroxy-8-[(3S,4R)-3-hydroxy-1-methylpiperidin-4-yl]-4-oxo-4H-1-benzopyran-7-yl ethyl[2-(piperidin-2-yl)ethyl]carbamate] | 2.2 | 21.7 | 20.7 |  |  |  |  |
| CN1CC[C@H](c2c(OC(=O)N(C)C[C@H]3CCCCN3)cc(O)c3c(=O)cc(-c4ccccc4Cl)oc23)[C@H](O)C1 [Example 4, 2-(2-chlorophenyl)-5-hydroxy-8-[(3S,4R)-3-hydroxy-1-methylpiperidin-4-yl]-4-oxo-4H-1-benzopyran-7-yl methyl{[(2R)-piperidin-2-yl]methyl}carbamate] |  |  |  | 7.1 | 71.2 | 72.2 | high |

Reference: patent US12617779B2, “Self degradation-type CDK9 inhibitor prodrug and liposome encapsulating same” (Sumitomo Pharma Co., Ltd., priority 2021, dated 2026)
